# Reference: patent publication US5101072A, “Sulfonylhydrazines and their use as antineoplastic agents and as antitrypanosomal agents” (Yale University, priority 1989, dated 1992)
# Experiments:
# Lethality in normal mice = assay type: in vivo
# Experimental: A single intraperitoneal dose of 1.2 g/kg or six daily intraperitoneal doses of 200 mg/kg of MeSO2 N(CH2 CH2 Cl)N(SO2 Me)2 produced no lethality in normal mice. Thus, the relatively great efficacy of this compound against the L1210 and P-388 leukemias and its relative lack of toxicity makes it an agent of significant promise.
# L1210 leukemia = assay: Survival time of mice bearing the L1210 leukemia; assay type: in vivo; conditions: for 60-day cures, % / % T/C (average survival time of treated/control animals × 100): L1210, at optimum effective daily dose, once daily × 6 days
# Experimental: The tumor-inhibitory properties of several compounds, e.g., 1,2-bis(methylsulfonyl)-1-methylhydrazine, 1-methyl-1,2,2-tris(methylsulfonyl)hydrazine, 1,2-bis(methylsulfonyl)-1,2-dimethylhydrazine and 1-(2-chloroethyl)-1,2,2-tris(methylsulfonyl)hydrazine were determined by measuring the effects of these agents on the survival time of mice bearing the L1210 leukemia as described by K. Shyam, L. A. Cosby, and A. C. Sartorelli, J. Med. Chem., 28, 525-527 (1985).
# ^a Administered once daily for 6 consecutive days, beginning 24 hours
# after tumor transplantation with 5-10 animals being used per group.
# ^b Average change in body weight from onset to termination of therapy
# (§1) ^c % T/C = average survival time of treated/control animals ×
# P388 leukemia = assay: % T/C and 60-day cures vs. P388 leukemia; assay type: in vivo, mice; conditions: 60 mg/kg/day
# Experimental: as §1
# ^d % T/C vs. P388 leukemia = 218 (80% 60day cures) at 60 mg/kg/day
# T. rhodesiense = assay: Oral trypanocidal activity (preliminary); assay type: in vivo, T. rhodesiense; mice; conditions: aqueous solutions, preliminary results
# Text: Orally active trypanocidal agents are desirable since, in areas where trypanosomiasis is endemic, other routes of drug administration frequently present problems.
# [1] = test system: T. rhodesiense (Y Tat 1.1); assay: Survival time of CD-1 mice infected with T. rhodesiense (trypanocidal activity); assay type: in vivo, T. rhodesiense (Y Tat 1.1); CD-1 mice; conditions: for Mean Extension of Life (Table III): administered in 0.05 ml of DMSO, dose not given
# Experimental: The trypanocidal properties of several methylating agents including MeSO2 N(Me)N(SO2 Me)2 and MeSO2 N(Me)N(Me)SO2 Me were determined by measuring their effects on the survival time of CD-1 mice infected with T. rhodesiense (Y Tat 1.1), a pleimorphic strain that produces a non-relapsing disease in mice. The level of parasites in the bloodstream and body fluids increases by approximately 10-fold per day and the animals die when the parasite burden exceeds 1 to 2×10^9 cells/ml. Infection with a single viable parasite will kill a mouse in approximately 9 to 10 days.
# Mice were infected ip with approximately 10^6 trypanosomes/mouse in phosphate buffered saline containing glucose. This level of parasites produces death in 4 days post-infection. These mice were treated (ip) with a single dose of drug dissolved in the appropriate vehicle 3 days after infection, when the parasitemia was 1 to 3×10^8 cells/ml of blood and the mice, if untreated, would survive for only 24 additional hours. The number of days the mice survived beyond that of the untreated controls was used as a measure of trypanocidal activity. The level of parasitemia in treated mice was measured at regular intervals to distinguish between parasite-related and drug toxicity-related deaths. No toxic deaths were observed. Mice that survived for 30 days without detectable parasitemias were considered cured. The effects of a single dose of various methylating agents on the survival time of trypanosome-bearing mice are summarized in Table II.
# ^a Drug that was administered was dissolved in 0.5 ml of phosphate
# buffered saline containing glucose.
# ^b Drug that was administered was dissolved in 0.05 ml of DMSO.
# [2] = Hydrolysis / decomposition in aqueous solution; assay type: physicochemical; conditions: 50 μM solution, phosphate buffered saline (pH 7.6), 37° C.
# Experimental: In the case of 1,2,2-tris(methylsulfonyl)-1-methylhydrazine, this reaction occurs slowly. A 50 μM solution of this compound hydrolyzes at an initial rate of 1% per minute in phosphate buffered saline (pH 7.6) at 37° C.
# Hydrolysis is expected to occur preferentially at N-2 to generate the 1,2-bis(sulfonyl)-1-methylhydrazine. The sulfonic acid and 1,2-bis(sulfonyl)-1-methylhydrazine that are generated are both ionized under these conditions. The release of protons can be used to follow the decomposition of these and related compounds. The release of protons can be assayed by following the decrease in absorbance at 560 nm of a weakly buffered (1 mM potassium phosphate) phenol red (21 mg/l) solution; initial pH 7.6 at 37° C. The assay can be calibrated using HCl standards.
# (§2) The reaction of 1,2-bis(sulfonyl)-1-methylhydrazine with water at pH 7.4-7.6 at 37° C. can be followed by proton release and/or methanol generation. Methanol generation can be assayed using alcohol oxidase and measuring the resultant O2 consumption using a Gilson oxygraph. This assay can be calibrated using methanol standards. The reaction of 1,2-bis(sulfonyl)-1-methylhydrazine with water is relatively fast [a 50 μM solution of 1,2-bis(methylsulfonyl)-1-methylhydrazine decomposes at an initial rate of 12-15% per minute in phosphate buffered saline (pH 7.6) at 37° C.] compared to the hydroylsis of 1,2,2-tris(methylsulfonyl)-1-methylhydrazine. RSO2 N=NMe may also decompose by a free radical mechanism to a smaller extent and methylate by the generation of methyl radicals.
# [3] = Methanol generation in vitro (spontaneous breakdown to generate reactive methyl groups); assay type: physicochemical; conditions: relative; PhSO2 N(Me)NHSO2 Ph = 1.0
# Experimental: as §2
# Methanol was produced by these agents in aqueous solutions free from strong competing nucleophiles. Formation of this alcohol was used as a measure of the rate of spontaneous breakdown of these compounds to generate reactive methyl groups. […] These findings provide strong evidence that methylation is essential for the observed biological activity of these compounds.
# [4] = mice bearing L1210, at optimum effective daily dose
# [5] = single ip dose 0.2 mmol/kg in 0.05 ml of DMSO
# [6] = single ip dose 0.2 mmol/kg in 0.5 ml phosphate buffered saline containing glucose
structure (smiles),measurement,setting,value
"CS(=O)(=O)N(CCCl)N(S(C)(=O)=O)S(C)(=O)=O [MeSO2 N(CH2 CH2 Cl)N(SO2 Me)2, 1-(2-chloroethyl)-1,2,2-tris(methylsulfonyl)hydrazine]",Lethality in normal mice,Lethality in normal mice; single intraperitoneal dose of 1.2 g/kg,no lethality
same,Lethality in normal mice,Lethality in normal mice; six daily intraperitoneal doses of 200 mg/kg,no lethality
same,"60-day ""cures"" of the L1210 leukemia",L1210 leukemia; 40 and 60 mg/kg per day×6,"60-day ""cures"" of the L1210 leukemia"
same,"60-day cures, %",L1210 leukemia,100%
same,"AvΔ Wt, % (average change in body weight from onset to termination of therapy)",L1210 leukemia; [4],-7.2%
same,Activity against the L1210 leukemia (in words),"L1210 leukemia; mouse, in vivo",exceedingly active
same,60-day cures vs. P388 leukemia,P388 leukemia,80%
same,% T/C vs. P388 leukemia,P388 leukemia,218%
"CS(=O)(=O)N(CCI)N(S(C)(=O)=O)S(C)(=O)=O [MeSO2 N(CH2 CH2 I)N(SO2 Me)2, 1-(2-iodoethyl)-1,2,2-tris(methylsulfonyl)hydrazine]","60-day cures, %",L1210 leukemia,0%
same,% T/C (average survival time of treated/control animals × 100),L1210 leukemia,110%
same,"AvΔ Wt, % (average change in body weight from onset to termination of therapy)",L1210 leukemia; [4],+8.0%
"CS(=O)(=O)OCCN(N(S(C)(=O)=O)S(C)(=O)=O)S(C)(=O)=O [MeSO2 N(CH2 CH2 OSO2 Me)N(SO2 Me)2, 1-(2-methylsulfonyloxy)ethyl-1,2,2-tris(methylsulfonyl)hydrazine]","60-day cures, %",L1210 leukemia,0%
same,% T/C (average survival time of treated/control animals × 100),L1210 leukemia,198%
same,"AvΔ Wt, % (average change in body weight from onset to termination of therapy)","L1210 leukemia; mouse, in vivo",-4.2%
"CN(N(C)S(C)(=O)=O)S(C)(=O)=O [MeSO2 N(Me)N(Me)SO2 Me, 1,2-Bis(methylsulfonyl)-1,2-dimethylhydrazine]",Trypanocidal activity on oral administration compared with Table II,T. rhodesiense,comparable activity to that reported in Table II
same,"60-day cures, %",L1210 leukemia,0%
same,% T/C (average survival time of treated/control animals × 100),L1210 leukemia,158%
same,"AvΔ Wt, % (average change in body weight from onset to termination of therapy)","L1210 leukemia; mouse, in vivo",-11.3%
same,cure (30 days without detectable parasitemias),[1]; [5],25%
same,Mean Extension of Life for relapsing animals,"[1]; single ip dose 0.2 mmol/kg in 0.05 ml of DMSO, relapsing animals",9.7 days
"CN(N(S(C)(=O)=O)S(C)(=O)=O)S(C)(=O)=O [MeSO2 N(Me)N(SO2 Me)2, 1-Methyl-1,2,2-tris(methylsulfonyl)hydrazine]",Trypanocidal activity on oral administration compared with Table II,T. rhodesiense,comparable activity to that reported in Table II
same,"60-day cures, %",L1210 leukemia,0%
same,% T/C (average survival time of treated/control animals × 100),L1210 leukemia,186%
same,"AvΔ Wt, % (average change in body weight from onset to termination of therapy)","L1210 leukemia; mouse, in vivo",-7.7%
same,Mean Extension of Life,[1]; [5],7.7 days
same,cure (30 days without detectable parasitemias),[1]; single ip dose 1.0 mmol/kg in 0.05 ml of DMSO,100%
same,Initial rate of hydrolysis / decomposition,[2],1 % per minute
COc1ccc(S(=O)(=O)NN(C)S(C)(=O)=O)cc1 [MeSO2 N(Me)NHSO2 C6 H4 -p-OMe],Mean Extension of Life,[1]; [5],4.5 days
COS(C)(=O)=O [MeSO2 OMe],Mean Extension of Life,[1]; [5],1.0 days
CN(N=O)C(N)=O [N-Methyl-N-nitrosourea],Mean Extension of Life,[1]; [5],8.0 days
CN(NC(=O)c1ccccc1)C(=O)c1ccccc1 [PhCON(Me)NHCOPh],Relative Methanol Generation in vitro,[3],0
same,Mean Extension of Life (Table III),[1],0 days
CN(NS(=O)(=O)c1ccccc1)S(=O)(=O)c1ccccc1 [PhSO2 N(Me)NHSO2 Ph],Relative Methanol Generation in vitro,[3],1.0
same,Mean Extension of Life (Table III),[1],5 days
same,Mean Extension of Life,[1]; [5],5.0 days
O=S(=O)(NNS(=O)(=O)c1ccccc1)c1ccccc1 [PhSO2 NHNHSO2 Ph],Relative Methanol Generation in vitro,[3],0
same,Mean Extension of Life (Table III),[1],0 days
"CNNCc1ccc(C(=O)NC(C)C)cc1 [Procarbazine, procarbazine]",Mean Extension of Life,[1]; [6],5.0 days
"CN(N=O)C(=O)N[C@H]1C(O)O[C@H](CO)[C@@H](O)[C@@H]1O (stereo partly drawn) [Streptozotocin, streptozotocin]",Mean Extension of Life,[1]; [6],4.3 days
